# According to US20230181602A1, “TREATMENT OF NON-ALCOHOLIC STEATOHEPATITIS (NASH)” (DURECT CORPORATION, priority 2020, published 2023):
# Marks after values point to notes of the source that are not given here.
# How the values were obtained:
# [1] = Single dose safety and pharmacokinetic study in subjects with NASH and control healthy subjects; format: in vivo, human
# Procedure: The present Example was a randomized, dose ranging, single dose safety and pharmacokinetic study of 25HC3S administered to subjects with NASH and control healthy subjects. […] For each cohort, 10 subjects with NASH were enrolled which were further classified into cirrhotic and non-cirrhotic. Each subject received only one dose of study treatment. The second cohort was dosed after a review of safety and tolerability data from Cohort 1.
# [2] = Metabolite profiling of plasma, urine and feces after intravenous dose in rats; format: in vivo, Sprague Dawley rats; conditions: intravenous 10 mg/kg, up to 1 hour postdose
# Procedure: Nine male Sprague Dawley rats (Group 1) were designated for the pharmacokinetic phase, 3 male Sprague Dawley rats (Group 2) for the excretion mass balance phase, and 7 male Sprague Dawley rats (Group 3) and 9 male Long Evans rats (Group 4) for the tissue distribution phase. All animals received a single intravenous dose of [^14C]-25HC3S at 10 mg/kg and a target radioactivity of 225 μCi/kg. Blood samples were collected from all Group 1 animals at approximately 0.083, 0.25, 0.5, 1, 2, 4, 8, 12, 24, 48, and 72 hours post-dose. Urine and feces were collected from all Group 2 animals periodically through 168 hours post-dose. […] Following blood collection, animals were euthanized by CO2 inhalation and carcasses frozen in a dry ice/hexane bath for processing by quantitative whole body autoradiography. Whole blood, plasma, urine, feces, cage rinse, and cage wash were analyzed for total radioactivity by liquid scintillation counting.
# Plasma pools were made from Group 1 rats at the 0.083, 0.25, 0.5, and 1-hour collection time points.
# Urine pools were prepared for Group 2 at 0 to 6 and 6 to 12 hours postdose. The largest component present was attributed to the parent 25HC3 S representing about 78% to 93% of the radioactivity. […]
# [3] = Phase 1b study in NASH patients: pharmacokinetics; format: in vivo, human; conditions: for CL/F: NASH patients, mean
# Procedure: (§1) A total of 63 patients completed the study with 21 patients per dose group (completion of MRI-PDFF measurement). 25HC3 S sodium was orally administered daily at 50 mg, 150 mg, or 600 mg (300 mg BID). […] Subjects provided written informed consent to participate in the study • 2. Males or females subjects 18 years or older, at the time of signing informed consent • 3. BMI 20-45 kg/m^2 • 4. […] Value of Fibroscan® ≥7 kPa • OR • b. MRE ≥2.75 kPa • *Clinical diagnosis of NASH was defined in this clinical trial as the existence of one or more of the following risk factors for NASH, namely: • a. Type 2 diabetes or elevated fasting blood sugar • b. Abdominal obesity • c. Elevated lipid levels, especially elevated levels of serum triglycerides • d. Hypertension, or • e. Low levels of HDL cholesterol • 5. For serum transaminases, ALT concentration for all patients at the time of screening was >1 and <5 times upper limit of normal (ULN) of the central lab in the absence of another cause of liver disease. If a patient had lab records in the past 6 months, ALT concentrations were <20 U/L female and <30 U/L male. AST concentration for all patients at the time of screening was <5× ULN • 6. […] Platelet counts ≥120,000/mm^3 • 8. Female subjects were eligible for the study if they met the following criteria: • Are not pregnant or nursing • Women of child-bearing potential (defined as females who are not surgically sterile or who are not over the age of 52 and amenorrheic for at least 12 months) must utilize appropriate birth control throughout the study duration. Acceptable methods that may be used are abstinence, birth control pills (“The Pill”) or patch, diaphragm, IUD (coil), vaginal ring, condom, surgical sterilization or progestin implant or injection, or sexual activity limited to a sterile (e.g., vasectomized) male partner • 9. Male participants agreed to consistently and correctly use a condom in combination with one of the above methods of birth control from enrollment to 30 days after the last dose of study medication • 10. Participants were able to comply with dosing and able to complete the study schedule of assessments
# The pharmacokinetics of administered 25HC3 S was determined.
# [4] = system: NASH patients with stage 1-3 fibrosis; assay: Phase 1b study in NASH patients, 4-week daily oral dosing: pharmacodynamic signals; format: in vivo, human; conditions: for Mean Non-HDL to Baseline / Mean TG to Baseline / Median Non-HDL to Baseline / Median TG to Baseline: day 28 after dosing
# Procedure: as §1
# NASH patients = conditions: between 50 mg and 200 mg oral dose levels; cited from earlier work
# [5] = system: NASH patients with stage 1-3 fibrosis; assay: Phase 1b study in NASH patients: safety; format: in vivo, human; conditions: 4 weeks oral
# Procedure: A total of 63 patients completed the study with 21 patients per dose group (completion of MRI-PDFF measurement). 25HC3 S sodium was orally administered daily at 50 mg, 150 mg, or 600 mg (300 mg BID). […] Subjects provided written informed consent to participate in the study • 2. Males or females subjects 18 years or older, at the time of signing informed consent • 3. BMI 20-45 kg/m^2 • 4. […] Value of Fibroscan® ≥7 kPa • OR • b. MRE ≥2.75 kPa • *Clinical diagnosis of NASH was defined in this clinical trial as the existence of one or more of the following risk factors for NASH, namely: • a. Type 2 diabetes or elevated fasting blood sugar • b. Abdominal obesity • c. Elevated lipid levels, especially elevated levels of serum triglycerides • d. Hypertension, or • e. Low levels of HDL cholesterol • 5. For serum transaminases, ALT concentration for all patients at the time of screening was >1 and <5 times upper limit of normal (ULN) of the central lab in the absence of another cause of liver disease. If a patient had lab records in the past 6 months, ALT concentrations were <20 U/L female and <30 U/L male. AST concentration for all patients at the time of screening was <5× ULN • 6. […] Platelet counts ≥120,000/mm^3 • 8. […]
# [6] = 50 mg QD, 4 weeks oral, patients with ≥10% reduction in MRI-PDFF, Day 28 vs baseline
# [7] = 50 mg QD, 4 weeks oral, patients with ≥10% reduction in MRI-PDFF, Day 28 vs baseline, listed as 25HC3 S
# [8] = 300 mg BID, 4 weeks oral, patients with ≥10% reduction in MRI-PDFF, Day 28 vs baseline
# [9] = 300 mg BID, 4 weeks oral, patients with ≥10% reduction in MRI-PDFF, Day 28 vs baseline, listed as 25HC3 S
# [10] = all on a statin except one outlier (n = 19)
# [11] = all patients on a statin (n = 20)
smiles,measurement,setting,value
"C[C@H](CCCC(C)(C)O)[C@H]1CC[C@H]2[C@@H]3CC=C4C[C@@H](OS(=O)(=O)O)CC[C@]4(C)[C@H]3CC[C@]12C [25HC3S, 5-cholesten-3,25-diol, 3-sulfate]",difference between healthy and NASH subjects in pharmacokinetics (Cmax and AUC),[1]; 50 mg and 200 mg,no clear difference
same,"increase of AUC0-last, AUCinf and Cmax with increasing dose",[1]; 50 mg to 200 mg,less than proportional
same,"geometric mean AUC0-12 and AUC0-last, NASH versus healthy subjects",[1]; Cohort 1 (50 mg),similar
same,"AUC0-inf, higher in NASH subjects than healthy",[1]; Cohort 2 (200 mg),approximately 20%
same,increase of geometric mean Cmax in NASH subjects over healthy subjects,[1]; Cohorts 1 and 2,18-24%
same,increase in both Cmax and AUC parameters for a four-fold increase in dose,"[1]; NASH subjects, 50 mg to 200 mg",three-fold
same,increase in mean Cmax for a four-fold increase in dose,"[1]; healthy subjects, 50 mg to 200 mg",three-fold
same,Mean % AUCexp,"[1]; human, in vivo",low
same,share of the exposure (AUC) to related radioactivity in plasma,[2],approximately 54%
same,CL/F,[3]; 50 mg QD oral,150.6 L/h
same,dose dependence of PK parameters,"[3]; 50 mg, 150 mg, 600 mg daily",dose dependent
same,CL/F,[3]; 150 mg QD oral,176.6 L/h
same,CL/F,[3]; 300 mg BID oral,166.2 L/h
same,PK parameters after repeat dosing versus single dose,[3]; 4-week daily oral dosing,comparable to those after a single dose
same,"Non-HDL-C, median change","[4]; 50 mg QD, 4 weeks oral, all patients, Day 28 vs baseline",−8%
same,"APRI score, median change",[4]; [6],−27%***
same,"AST, median change",[4]; [6],−24%**
same,"FIB-4 score, median change",[4]; [6],−19%**
same,"GGT, median change",[4]; [6],−13%***
same,"APRI score, median change",[4]; [7],−27%
same,"AST, median change",[4]; [7],−24%
same,"FIB-4 score, median change",[4]; [7],−19%
same,"GGT, median change",[4]; [7],−13%
same,"GGT, median change","[4]; 150 mg QD, 4 weeks oral, all patients, Day 28 vs baseline",−1%
same,"APRI score, median change",[4]; [8],−36%***
same,"AST, median change",[4]; [8],−39%***
same,"FIB-4 score, median change",[4]; [8],−21%***
same,"APRI score, median change",[4]; [9],−36%
same,"AST, median change",[4]; [9],−39%
same,"FIB-4 score, median change",[4]; [9],−21%
same,Mean Non-HDL to Baseline,[4]; [10],−11%
same,Mean TG to Baseline,[4]; [10],−10%
same,Median Non-HDL to Baseline,[4]; [10],−10%
same,Median TG to Baseline,[4]; [10],−9%
same,Mean Non-HDL to Baseline,[4]; [11],−9%
same,Mean TG to Baseline,[4]; [11],−2%
same,Median Non-HDL to Baseline,[4]; [11],−9%
same,Median TG to Baseline,[4]; [11],−6%
same,"enzyme levels (e.g., ALT, AST, GGT)",[4]; high dose (300 mg BID),improved enzyme levels
same,patients who showed ≥10% liver fat reduction from baseline as measured by MRI-PDFF,"[4]; in each dose group (50 mg, 150 mg, 600 mg daily), after 4-week dosing",43%
same,"serum triglycerides, median reduction from baseline","[4]; patients with elevated baseline triglycerides (≥200 mg/dL; n=16) across all dose groups, day 28",−24%
same,reduction in serum triglycerides,"[4]; patients with elevated baseline triglycerides (≥200 mg/dL; n=16) across all dose groups, day 28 from baseline",24%
same,dose-dependent changes of biological responses,NASH patients,no dose-dependent changes of biological responses
same,tolerability,"[5]; all three doses (50 mg, 150 mg, 600 mg daily)",well tolerated
same,drug related serious adverse events,[5]; all three doses,no drug related serious adverse events observed
